Laboratory results: publication PMC7464559, “Synthesis, Optimization, Antifungal Activity, Selectivity, and CYP51 Binding of New 2-Aryl-3-azolyl-1-indolyl-propan-2-ols” (Pharmaceuticals, 2020)
Values after ≈ are worked out from the molar mass of the structure shown. Read-outs that look alike come from different tables or passages of the source.

How the values were obtained:
[1] = target: T1, 17α-hydroxylase/17,20-lyase (CYP17) (Homo sapiens, UniProt P05093); experiment: In vitro inhibition of 17α-hydroxylase/17,20-lyase; type: biochemical; settings: mean of two experiments in duplicate
T1 sequence (P05093 1-508): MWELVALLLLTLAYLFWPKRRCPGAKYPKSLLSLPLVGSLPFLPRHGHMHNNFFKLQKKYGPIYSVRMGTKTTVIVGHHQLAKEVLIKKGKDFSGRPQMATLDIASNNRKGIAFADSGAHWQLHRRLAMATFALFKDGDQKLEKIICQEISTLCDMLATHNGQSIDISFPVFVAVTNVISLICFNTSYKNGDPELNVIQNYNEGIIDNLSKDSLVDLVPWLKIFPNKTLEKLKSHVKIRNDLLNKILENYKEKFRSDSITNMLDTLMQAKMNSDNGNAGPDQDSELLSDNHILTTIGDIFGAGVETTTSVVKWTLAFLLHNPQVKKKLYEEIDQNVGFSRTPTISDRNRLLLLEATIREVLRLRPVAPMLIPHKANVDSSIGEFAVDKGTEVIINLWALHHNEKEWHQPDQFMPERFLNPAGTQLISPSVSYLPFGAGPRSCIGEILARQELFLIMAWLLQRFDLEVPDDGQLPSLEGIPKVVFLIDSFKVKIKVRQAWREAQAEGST
Protocol: The assay was performed similar to described methods [29, 52]. […] Microsomal protein was added to start the reaction. […] After the addition of 1 mL EtOAc, the vials were shaken then centrifuged. The organic phase was removed, vortexed with phosphate buffer (250 µL), 1 M aqueous HCl (50 µL), and then dried. Aliquots of 25 µL methanol, containing 250 pmol of fluorocortisol acetate as internal standard, were added to the extracts. The samples (20 µL) were submitted to HPLC (RP-8 column, methanol/water 1:1, v/v) and measured using UV (240 nm).

[2] = system: CK98003 (Candida krusei); experiment: Anti-Candida in vitro assay, CK98003; type: cell-based; settings: Pichia kudriavzevii; Candida krusei CK98003, mean of triplicate; read-out: MIC (IC80) CK98003
Protocol: (§1) Test fungal strains were obtained from the American Type Culture Collection (ATCC) or were clinical isolates from the Laboratory of Parasitology and Medical Mycology, Centre Hospitalier Universitaire (CHU) of Nantes. The strains were maintained on Sabouraud agar slants and were subcultured 24 h before used. The activity of the target compounds 8a–g and 11a–m was determined by the method previously described. Briefly, molecules were diluted in RPMI 1640 medium supplemented with 0.165 M morpholinopropanesulphonic acid (Sigma-Aldrich, Saint-Quentin Fallavier, France), 2% glucose, and antibiotics. Candida suspensions were prepared in RPMI 1640 medium (Sigma-Aldrich, Saint-Quentin Fallavier, France) adjusted to give a final concentration of 10^3 cells/mL, and a 96-well microplate (Nunc, D. Dutscher, Brumath, France) was seeded with 100 µL. Each concentration of molecules (100 µL) to be tested was added (in triplicate) and plates were incubated at 37 °C for 24 h. The cellular viability was evaluated on the Fluorolite 1000 (Dynatech, France) with an excitation at 550 nm and an emission at 590 nm after a 4 h incubation with 10 µL of Alamar Blue®. […] MIC was expressed as the mean of the triplicate values. KTC and FLC were used as standards.

[3] = target: T2, aromatase (CYP19) (Homo sapiens, UniProt P11511); experiment: In vitro inhibition of aromatase; type: biochemical
T2 construct: Microsomal protein (0.1 mg) was added to start the reaction; from tissue; host or cells: microsomes; ('human placental microsomes')
T2 sequence (P11511 1-503): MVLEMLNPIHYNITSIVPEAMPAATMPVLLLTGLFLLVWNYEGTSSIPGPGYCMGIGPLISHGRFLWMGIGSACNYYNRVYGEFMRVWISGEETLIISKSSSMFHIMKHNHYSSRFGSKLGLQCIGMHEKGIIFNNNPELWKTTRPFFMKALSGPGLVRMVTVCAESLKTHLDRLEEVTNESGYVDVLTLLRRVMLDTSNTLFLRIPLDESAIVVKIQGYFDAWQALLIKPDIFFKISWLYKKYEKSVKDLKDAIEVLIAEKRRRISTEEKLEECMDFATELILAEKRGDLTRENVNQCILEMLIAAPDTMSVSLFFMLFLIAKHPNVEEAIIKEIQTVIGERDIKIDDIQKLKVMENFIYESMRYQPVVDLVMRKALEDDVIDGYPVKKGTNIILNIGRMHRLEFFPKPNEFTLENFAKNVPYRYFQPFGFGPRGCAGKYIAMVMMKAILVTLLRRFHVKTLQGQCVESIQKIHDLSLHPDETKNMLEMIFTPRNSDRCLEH
Protocol: The assay was performed according to previously described methods [49, 50, 51] by monitoring the enzyme activity by measuring the ^3H2O formed from [1β-^3H]androstenedione during aromatization. […] Microsomal protein (0.1 mg) was added to start the reaction. After incubation of 15 min at 30 °C, the reaction was stopped by adding 200 µL of a cold HgCl2 solution (1 mM). After the addition of 200 µL of an aqueous dextran-coated charcoal (DCC) suspension (2%), the vials were shaken then centrifuged to separate the charcoal-absorbed steroids. Aliquots of the supernatant were assayed for ^3H2O by counting in a scintillation mixture using a LKB-Wallac β-counter.

[4] = system: CA98002 (Candida albicans); experiment: Anti-Candida in vitro assay, CA98002; type: cell-based; settings: Candida albicans CA98002, mean of triplicate; read-out: MIC (IC80) CA98002
Protocol: as §1

[5] = system: ATCC6258 Candida krusei strain; experiment: Anti-Candida in vitro assay, ATCC6258; type: cell-based; settings: Pichia kudriavzevii; Candida krusei ATCC6258, mean of triplicate; read-out: MIC (IC80) ATCC6258
Protocol: as §1

[6] = system: CL98001 (Candida lusitaniae); experiment: Anti-Candida in vitro assay, CL98001; type: cell-based; settings: Clavispora lusitaniae; Candida lusitaniae CL98001, mean of triplicate; read-out: MIC (IC80) CL98001
Protocol: as §1

[7] = system: C. albicans CA98001; experiment: Anti-Candida in vitro assay (Alamar Blue), C. albicans CA98001; type: cell-based; settings: MIC = IC80, 24 h at 37 °C, mean of triplicate; for MIC: Candida albicans, CA98001, 24 h
Protocol: as §1

[8] = MRC5 toxicity assay; type: cell-based, human; settings: human, MRC-5 cells, 96-h incubation, mean of triplicate, read-out: Cytotoxicity IC50 on MRC-5 cells
Protocol: (§2) The cytotoxicity of compounds was studied with human fibroblast (MRC5). Cells were grown in RPMI 1640 medium (Sigma-Aldrich, Saint-Quentin Fallavier, France) supplemented with 10% fetal bovin serum (Sigma–Aldrich). Drugs were tested at three concentrations (100, 10, and 1 µM) in triplicate. After a 96-h incubation time, cytotoxicity was measured on the Fluorolite 1000 (Dynatech, Guyancourt, France) after a 4-h incubation time with Uptiblue® (Interchim, Montluçon, France). Inhibitory concentration 50 is a mean of triplicate values. A toxicity index was determined as follow: IC50 against MRC5/Geometric mean of the MICs against Candida spp..

[9] = system: human fetal lung fibroblast (MRC-5) cells; experiment: MRC5 toxicity assay; type: cell-based; settings: 96-h incubation, mean of triplicate, read-out: Cytotoxicity IC50 on MRC-5 cells
Protocol: as §2

[10] = system: CK98002 (Candida krusei); experiment: Anti-Candida in vitro assay, CK98002; type: cell-based; settings: Pichia kudriavzevii; Candida krusei CK98002, mean of triplicate; read-out: MIC (IC80) CK98002
Protocol: as §1

[11] = system: ATCC90018 Candida parapsilosis strain; experiment: Anti-Candida in vitro assay, ATCC90018; type: cell-based; settings: Lodderomyces parapsilosis; Candida parapsilosis ATCC90018, mean of triplicate; read-out: MIC (IC80) ATCC90018
Protocol: as §1

[12] = system: CA98005 (Candida albicans); experiment: Anti-Candida in vitro assay, CA98005; type: cell-based; settings: Candida albicans CA98005, mean of triplicate; read-out: MIC (IC80) CA98005
Protocol: as §1

[13] = system: ATCC2091 Candida albicans strain; experiment: Anti-Candida in vitro assay, ATCC2091; type: cell-based; settings: Candida albicans ATCC2091, mean of triplicate; read-out: MIC (IC80) ATCC2091
Protocol: as §1

[14] = system: CYP11B1; design: method as in PMID 7663533; settings: cited from earlier work
[15] = system: CYP11B2; design: method as in PMID 21193036; settings: another similar study; cited from earlier work
[16] = MRC-5 human fetal lung fibroblast cells

SMILES | IC50 [1] | MIC [2] | inhibition at 36 µM ([3]; at 36 µM) | IC50 ([3]; mean of at least two experiments in duplicate) | MIC [4] | MIC [5] | MIC [6] | MIC [7] | melting point | IC50 at 96 h [8, 16] | IC50 [9] | MIC [10] | MIC [11] | MIC [12] | MIC [13] | MIC (= IC80) C. albicans CA98001 [7] | CYP11B1 inhibition [14] | IC50 at 96 h [8] | CYP11B2 inhibition [15] | CYP17 IC50 [1]
COc1ccc2c(c1)CCC(Cc1cnc[nH]1)=C2C [BW19, 4-(6-methoxy-1-methyl-3,4-dihydro-naphthalen-2-ylmethyl)-1H-imidazole, reference compound] | 0.15 µM | – | – | – | – | – | – | – | – | – | – | – | – | – | – | – | – | – | – | –
OC(Cn1cncn1)(Cn1ccc2ccccc21)c1ccc(F)cc1F (centres unmarked) [Compound 11d, 2-(2,4-Difluorophenyl)-3-(1H-indol-1-yl)-1-(1H-1,2,4-triazol-1-yl)-propan-2-ol] | – | 24.1 µg/mL (≈ 67.9 µM) | 89% | 3.58 µM | 0.026 µg/mL (≈ 0.0734 µM) | 2.18 µg/mL (≈ 6.15 µM) | 0.021 µg/mL (≈ 0.0593 µM) | 0.0198 µg/mL (≈ 0.0559 µM) | 119 to 120 °C | > 100 µM | ~197 µM | 1.55 µg/mL (≈ 4.37 µM) | 0.201 µg/mL (≈ 0.567 µM) | 0.064 µg/mL (≈ 0.181 µM) | 0.021 µg/mL (≈ 0.0593 µM) | – | – | – | – | –
Cc1cn(CC(O)(Cn2cncn2)c2ccc(Cl)cc2Cl)c2ccccc12 (centres unmarked) [Compound 11i, 2-(2,4-Dichlorophenyl)-3-(3-methyl-1H-indol-1-yl)-1-(1H-1,2,4-triazol-1-yl)propan-2-ol] | – | 1.69 µg/mL (≈ 4.2 µM) | – | – | 0.044 µg/mL (≈ 0.11 µM) | 3.01 µg/mL (≈ 7.5 µM) | 0.025 µg/mL (≈ 0.0623 µM) | 0.007 µg/mL (≈ 0.0174 µM) | 161 to 162 °C | 19 µM | – | 0.803 µg/mL (≈ 2 µM) | 0.245 µg/mL (≈ 0.611 µM) | 0.03 µg/mL (≈ 0.0748 µM) | 0.026 µg/mL (≈ 0.0648 µM) | – | – | – | – | –
Cc1c(C)n(CC(O)(Cn2cncn2)c2ccc(F)cc2F)c2ccccc12 (centres unmarked) [Compound 11j, 2-(2,4-Difluorophenyl)-3-(2,3-dimethyl-1H-indol-1-yl)-1-(1H-1,2,4-triazol-1-yl)propan-2-ol] | – | 13.9 µg/mL (≈ 36.4 µM) | – | – | 0.382 µg/mL (≈ 0.999 µM) | 18 µg/mL (≈ 47 µM) | 0.256 µg/mL (≈ 0.669 µM) | 0.157 µg/mL (≈ 0.411 µM) | 102 to 103 °C | 25 µM | – | 11.5 µg/mL (≈ 30 µM) | 4.01 µg/mL (≈ 10.5 µM) | 2.41 µg/mL (≈ 6.3 µM) | 0.256 µg/mL (≈ 0.669 µM) | – | – | – | – | –
Cc1c(C)n(CC(O)(Cn2cncn2)c2ccc(Cl)cc2Cl)c2ccccc12 (centres unmarked) [Compound 11k, 2-(2,4-Dichlorophenyl)-3-(2,3-dimethyl-1H-indol-1-yl)-1-(1H-1,2,4-triazol-1-yl)propan-2-ol] | – | > 41.5 µg/mL | – | – | 1.12 µg/mL (≈ 2.7 µM) | 25.3 µg/mL (≈ 60.9 µM) | 2.87 µg/mL (≈ 6.9 µM) | 1.25 µg/mL (≈ 3 µM) | 123 to 124 °C | ~97 µM | 97.3 µM | 20.2 µg/mL (≈ 48.7 µM) | 9.76 µg/mL (≈ 23.5 µM) | 2.99 µg/mL (≈ 7.2 µM) | 2.74 µg/mL (≈ 6.6 µM) | – | – | – | – | –
OC(Cn1cncn1)(Cn1cncn1)c1ccc(F)cc1F [FLC, fluconazole, reference compound] | – | 6.7 µg/mL (≈ 21.9 µM) | – | – | 1 µg/mL (≈ 3.27 µM) | 7.5 µg/mL (≈ 24.5 µM) | 0.55 µg/mL (≈ 1.8 µM) | 0.02 µg/mL (≈ 0.0653 µM) | – | > 100 µM | – | 2 µg/mL (≈ 6.53 µM) | 0.6 µg/mL (≈ 1.96 µM) | 0.57 µg/mL (≈ 1.86 µM) | 0.07 µg/mL (≈ 0.229 µM) | 0.02 µg/mL (≈ 0.0653 µM) | minor inhibitor | – | – | –
CC(=O)N1CCN(c2ccc(OCC3COC(Cn4ccnc4)(c4ccc(Cl)cc4Cl)O3)cc2)CC1 (centres unmarked) [KTC, ketoconazole, reference compound] | – | 0.43 µg/mL (≈ 0.809 µM) | – | – | 0.009 µg/mL (≈ 0.0169 µM) | 0.079 µg/mL (≈ 0.149 µM) | 0.007 µg/mL (≈ 0.0132 µM) | 0.005 µg/mL (≈ 0.00941 µM) | – | – | – | 0.37 µg/mL (≈ 0.696 µM) | 0.064 µg/mL (≈ 0.12 µM) | 0.006 µg/mL (≈ 0.0113 µM) | 0.008 µg/mL (≈ 0.0151 µM) | – | strong inhibitor | 69.1 µM | 100% | –
N#Cc1ccc(C2CCCc3cncn32)cc1 (centres unmarked) [fadrozole, reference compound] | – | – | – | – | – | – | – | – | – | – | – | – | – | – | – | – | – | – | – | not active
